#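 Cultured in 96-well plates, cells were exposed to test compound for 48 hours across five concentrations. GI50 is the concentration that inhibits growth by half. At the TGI there is no net growth.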
# Columns and labels:
# Assay in all cases: inhibition of tumour cell growth, NCI panel, 48 h
# KM12 colon = tested on: KM12 colon
# HS 578T breast = tested on: HS 578T breast
# SR leukemia = tested on: SR leukemia
# NCI-H23 lung = tested on: NCI-H23 lung
# TK-10 renal = tested on: TK-10 renal
# HCC-2998 colon = tested on: HCC-2998 colon
# IGROV1 ovarian = tested on: IGROV1 ovarian
# MDA-MB-435 = tested on: MDA-MB-435
# RPMI-8226 leukemia = tested on: RPMI-8226 leukemia
# ACHN renal = tested on: ACHN renal
# NCI-H522 lung = tested on: NCI-H522 lung
# M14 melanoma = tested on: M14 melanoma
# BT-549 breast = tested on: BT-549 breast
# CCRF-CEM leukemia = tested on: CCRF-CEM leukemia
# HCT-116 colon = tested on: HCT-116 colon
# T-47D breast = tested on: T-47D breast
# HOP-62 NSCLC = tested on: HOP-62 NSCLC
# U251 CNS = tested on: U251 CNS
# SK-OV-3 ovarian = tested on: SK-OV-3 ovarian
# COLO 205 colon = tested on: COLO 205 colon
# SNB-19 CNS = tested on: SNB-19 CNS
# UACC-62 melanoma = tested on: UACC-62 melanoma
# SK-MEL-28 melanoma = tested on: SK-MEL-28 melanoma
# MCF7 breast = tested on: MCF7 breast
# EKVX NSCLC = tested on: EKVX NSCLC
# OVCAR-4 ovarian = tested on: OVCAR-4 ovarian
# 786-0 renal = tested on: 786-0 renal
# OVCAR-8 ovarian = tested on: OVCAR-8 ovarian
# HL-60(TB) leukemia = tested on: HL-60(TB) leukemia
# NCI-H460 lung = tested on: NCI-H460 lung
# NCI/ADR-RES ovarian = tested on: NCI/ADR-RES ovarian
# SF-539 CNS = tested on: SF-539 CNS
# UACC-257 melanoma = tested on: UACC-257 melanoma
# CAKI-1 renal = tested on: CAKI-1 renal
# DU-145 prostate = tested on: DU-145 prostate
# UO-31 renal = tested on: UO-31 renal
# K-562 leukemia = tested on: K-562 leukemia
# LOX IMVI melanoma = tested on: LOX IMVI melanoma
# SNB-75 CNS = tested on: SNB-75 CNS
# PC-3 prostate = tested on: PC-3 prostate
# A549 NSCLC = tested on: A549 NSCLC
# SF-268 CNS = tested on: SF-268 CNS
# SK-MEL-2 melanoma = tested on: SK-MEL-2 melanoma
# HCT-15 colon = tested on: HCT-15 colon
# SN12C renal = tested on: SN12C renal
# MDA-MB-231 breast = tested on: MDA-MB-231 breast
# MALME-3M melanoma = tested on: MALME-3M melanoma
# SW-620 colon = tested on: SW-620 colon
# A498 renal = tested on: A498 renal
# RXF 393 renal = tested on: RXF 393 renal
# OVCAR-3 ovarian = tested on: OVCAR-3 ovarian
# MOLT-4 leukemia = tested on: MOLT-4 leukemia
# HT29 colon = tested on: HT29 colon
# OVCAR-5 ovarian = tested on: OVCAR-5 ovarian
compound,measurement,setting,value
COc1cc2nc(SCC(=O)Nc3cc(OC)c(OC)c(OC)c3)n(Cc3ccccc3)c(=O)c2cc1OC,GI50,KM12 colon,> 100 µM
same,TGI,KM12 colon,> 100 µM
same,GI50,HS 578T breast,2.46 µM
same,TGI,HS 578T breast,9.45 µM
same,GI50,SR leukemia,40.9 µM
same,TGI,SR leukemia,> 100 µM
same,GI50,NCI-H23 lung,4.17 µM
same,TGI,NCI-H23 lung,50.3 µM
same,GI50,TK-10 renal,4.06 µM
same,TGI,TK-10 renal,21.5 µM
same,GI50,HCC-2998 colon,50.6 µM
same,TGI,HCC-2998 colon,> 100 µM
same,GI50,IGROV1 ovarian,7.34 µM
same,TGI,IGROV1 ovarian,> 100 µM
same,GI50,MDA-MB-435,4.91 µM
same,TGI,MDA-MB-435,> 100 µM
same,GI50,RPMI-8226 leukemia,> 100 µM
same,TGI,RPMI-8226 leukemia,> 100 µM
same,GI50,ACHN renal,4.63 µM
same,TGI,ACHN renal,> 100 µM
same,GI50,NCI-H522 lung,3.65 µM
same,TGI,NCI-H522 lung,32.4 µM
same,GI50,M14 melanoma,16.1 µM
same,TGI,M14 melanoma,> 100 µM
same,GI50,BT-549 breast,2.02 µM
same,TGI,BT-549 breast,5.61 µM
same,GI50,CCRF-CEM leukemia,> 100 µM
same,TGI,CCRF-CEM leukemia,> 100 µM
same,GI50,HCT-116 colon,6.74 µM
same,TGI,HCT-116 colon,78.9 µM
same,GI50,T-47D breast,6.57 µM
same,TGI,T-47D breast,> 100 µM
same,GI50,HOP-62 NSCLC,2.03 µM
same,TGI,HOP-62 NSCLC,4.28 µM
same,GI50,U251 CNS,3.18 µM
same,TGI,U251 CNS,11.2 µM
same,GI50,SK-OV-3 ovarian,2.91 µM
same,TGI,SK-OV-3 ovarian,7.26 µM
same,GI50,COLO 205 colon,15.3 µM
same,TGI,COLO 205 colon,33 µM
same,GI50,SNB-19 CNS,2.92 µM
same,TGI,SNB-19 CNS,18.1 µM
same,GI50,UACC-62 melanoma,2.35 µM
same,TGI,UACC-62 melanoma,6.82 µM
same,GI50,SK-MEL-28 melanoma,3.02 µM
same,TGI,SK-MEL-28 melanoma,11.4 µM
same,GI50,MCF7 breast,7.93 µM
same,TGI,MCF7 breast,> 100 µM
same,GI50,EKVX NSCLC,5.12 µM
same,TGI,EKVX NSCLC,31.1 µM
same,GI50,OVCAR-4 ovarian,2.11 µM
same,TGI,OVCAR-4 ovarian,5.56 µM
same,GI50,786-0 renal,3.51 µM
same,TGI,786-0 renal,17.6 µM
same,GI50,OVCAR-8 ovarian,3.46 µM
same,TGI,OVCAR-8 ovarian,34.9 µM
same,GI50,HL-60(TB) leukemia,> 100 µM
same,TGI,HL-60(TB) leukemia,> 100 µM
same,GI50,NCI-H460 lung,6.72 µM
same,TGI,NCI-H460 lung,> 100 µM
same,GI50,NCI/ADR-RES ovarian,3.3 µM
same,TGI,NCI/ADR-RES ovarian,11.6 µM
same,GI50,SF-539 CNS,2.37 µM
same,TGI,SF-539 CNS,5.78 µM
same,GI50,UACC-257 melanoma,3.55 µM
same,TGI,UACC-257 melanoma,> 100 µM
same,GI50,CAKI-1 renal,3.05 µM
same,TGI,CAKI-1 renal,28.8 µM
same,GI50,DU-145 prostate,7.44 µM
same,TGI,DU-145 prostate,> 100 µM
same,GI50,UO-31 renal,1.95 µM
same,TGI,UO-31 renal,8.85 µM
same,GI50,K-562 leukemia,> 100 µM
same,TGI,K-562 leukemia,> 100 µM
same,GI50,LOX IMVI melanoma,4.71 µM
same,TGI,LOX IMVI melanoma,> 100 µM
same,GI50,SNB-75 CNS,1.57 µM
same,TGI,SNB-75 CNS,3.38 µM
same,GI50,PC-3 prostate,3.2 µM
same,TGI,PC-3 prostate,> 100 µM
same,GI50,A549 NSCLC,5.13 µM
same,TGI,A549 NSCLC,> 100 µM
same,GI50,SF-268 CNS,3.57 µM
same,TGI,SF-268 CNS,23.2 µM
same,GI50,SK-MEL-2 melanoma,3.41 µM
same,TGI,SK-MEL-2 melanoma,10.6 µM
same,GI50,HCT-15 colon,> 100 µM
same,TGI,HCT-15 colon,> 100 µM
same,GI50,SN12C renal,4.7 µM
same,TGI,SN12C renal,> 100 µM
same,GI50,MDA-MB-231 breast,3.73 µM
same,TGI,MDA-MB-231 breast,37.8 µM
same,GI50,MALME-3M melanoma,3.3 µM
same,TGI,MALME-3M melanoma,> 100 µM
same,GI50,SW-620 colon,> 100 µM
same,TGI,SW-620 colon,> 100 µM
same,GI50,A498 renal,1.75 µM
same,TGI,A498 renal,32.5 µM
same,GI50,RXF 393 renal,2.55 µM
same,TGI,RXF 393 renal,8.35 µM
same,GI50,OVCAR-3 ovarian,7.68 µM
same,TGI,OVCAR-3 ovarian,50.3 µM
same,GI50,MOLT-4 leukemia,> 100 µM
same,TGI,MOLT-4 leukemia,> 100 µM
same,GI50,HT29 colon,16.6 µM
same,TGI,HT29 colon,38.7 µM
same,GI50,OVCAR-5 ovarian,> 100 µM
same,TGI,OVCAR-5 ovarian,> 100 µM
CCCC(=O)NC1CCc2cc(OC)c(OC)c(OC)c2-c2ccc(OC)c(=O)cc21 (stereo not given),TGI,TK-10 renal,> 100 µM
same,TGI,IGROV1 ovarian,> 100 µM
same,TGI,RPMI-8226 leukemia,> 100 µM
same,TGI,ACHN renal,> 100 µM
same,GI50,M14 melanoma,> 100 µM
same,TGI,M14 melanoma,> 100 µM
same,TGI,BT-549 breast,> 100 µM
same,TGI,CCRF-CEM leukemia,> 100 µM
same,TGI,HCT-116 colon,> 100 µM
same,TGI,HOP-62 NSCLC,> 100 µM
same,TGI,U251 CNS,> 100 µM
same,TGI,SNB-19 CNS,> 100 µM
same,TGI,UACC-62 melanoma,> 100 µM
same,TGI,SK-MEL-28 melanoma,> 100 µM
same,TGI,MCF7 breast,> 100 µM
same,GI50,EKVX NSCLC,> 100 µM
same,TGI,EKVX NSCLC,> 100 µM
same,TGI,786-0 renal,> 100 µM
same,TGI,OVCAR-8 ovarian,> 100 µM
same,TGI,HL-60(TB) leukemia,0.158 µM
same,TGI,NCI-H460 lung,> 100 µM
same,GI50,NCI/ADR-RES ovarian,3.2 µM
same,TGI,NCI/ADR-RES ovarian,> 100 µM
same,TGI,SF-539 CNS,0.00199 µM
same,TGI,DU-145 prostate,0.0114 µM
same,GI50,UO-31 renal,0.138 µM
same,TGI,UO-31 renal,75.9 µM
same,TGI,K-562 leukemia,> 100 µM
same,TGI,LOX IMVI melanoma,> 100 µM
same,TGI,SNB-75 CNS,> 100 µM
same,TGI,PC-3 prostate,> 100 µM
same,TGI,A549 NSCLC,> 100 µM
same,TGI,SF-268 CNS,> 100 µM
same,TGI,SK-MEL-2 melanoma,> 100 µM
same,GI50,HCT-15 colon,0.011 µM
same,TGI,HCT-15 colon,25.5 µM
same,TGI,SN12C renal,> 100 µM
same,TGI,MALME-3M melanoma,> 100 µM
same,TGI,SW-620 colon,> 100 µM
same,TGI,RXF 393 renal,44.7 µM
same,TGI,OVCAR-3 ovarian,0.211 µM
same,TGI,HT29 colon,0.125 µM
